{"source": "patent US4254049A", "about": "“Substituted phenyl-2-cyano-2-alkenoic acid esters” (American Cyanamid Company, priority 1979, dated 1981)", "key": {"[1]": {"test_system": "articular cartilage breakdown by arthritic synovial tissue", "assay": "Synovium-cartilage test (hexoseamine/hydroxyproline ratio of cartilage cultured with arthritic synovium)", "assay_type": "cell-based, rabbit (New Zealand)", "settings": "Oryctolagus cuniculus; 10 mcg./ml.; 48 hours at 37° C.; mean of 3 or 4 tests; active if average greater than 50%; read-out: Mean % Inhibition (suppression of cartilage breakdown)", "protocol": "The compounds of the invention have been tested by the synovium-cartilage test which is a modification of the method described by Dumonde, D. C. and Glynn, L. E., The Production of Arthritis in Rabbits by an Immunological Reaction to Fibrin, Brit. J. Exp. Pathol., 43, 373 (1962).\nMale, New Zealand rabbits, weighing 1.6-3.0 kg. were used. The rabbits were housed in individual cages and given food and water ad libitum. The rabbits were sensitized to bovine serum albumin (BSA) by injection of 20 mg./kg. BSA in complete Freund's adjuvant. The emulsion was injected subcutaneously into multiple sites on the back. Total injection volume equaled one […]. of body weight. Between 18 and 21 days following immunization, the rabbits were challenged with an intraarticular injection of 5 mg. BSA into the right knee joint. Unanesthetized animals were restrained on their backs, and a 20-gauge, one-inch needle, with a 5 ml. syringe, was introduced into the joint and synovial fluid aspirated to determine that the synovium had been penetrated. The needle was then left in place for injection of the antigen. A 0.5 ml. portion of 10 mg./ml. BSA in sterile saline was injected into the synovial sac. The rabbits received an additional five intraarticular injections of 5 mg. BSA into the right knee at intervals of 12-16 days. Following the sixth injection the rabbits were sacrificed by an intracardiac injection of 5 ml. of a saturated solution of potassium chloride. The right knee was shaved. A longitudinal incision was made over the patellar ligament and the skin reflected under sterile conditions. The patellar ligament was cut transversely and reflected. Fascia and capsular tissue were trimmed from the lateral and medial aspects of the knee exposing the synovial membrane. The membrane was grasped with forceps, stretched laterally and then excised in a single piece on each side of the knee. The infrapatellar fat pad was removed and the joint space widened by cutting the anterior attachments of the menisci and severing the collateral cruciate ligaments. The femur and tibia were then separated and the menisci excised along with sufficient amounts of synovial tissue from the popliteal area adhering to the menisci. The tissues were immediately placed in a sterile Petri dish containing tissue culture medium composed of MEM (Earle's salts) without sodium bicarbonate,with 25 mM Hepes buffer, pH adjusted to 7.34-7.37, and antibiotics (streptomycin and neomycin, 100 units/ml.). Ten percent normal rabbit serum (NRS) was added. The tissues were rinsed three times in fresh medium plus 10% NRS, then cut into pieces of 20-30 mg.\nArticular cartilage was obtained from the knees of normal, young rabbits, weighing 1.0 to 1.5 kg. The knees were shaved, the rabbits sacrificed and the joint exposed as described above. […]"}, "[2]": {"test_system": "adjuvant induced arthritis", "assay": "Adjuvant induced arthritis in rats (chronic inflammation accompanied by joint destruction)", "assay_type": "in vivo, rat (Royal Hart, Wistar strain)", "settings": "oral; for Dead/Treated At 21 Days: once daily days 0 through 13; for % Inhibition of Swelling (Primary lesion), Day 14: * significantly different from adjuvant controls", "protocol": "Groups of three Royal Hart, Wistar strain rats weighing 200±10 grams each were injected intradermally in the right hind paw with Freund's adjuvant (dried human tubercle bacilli in a mineral oil vehicle) at a dose of 2 mg./kg. of body weight. Test compound was administered orally in a 1.5% starch vehicle at various doses once daily on days 0 through 13 post challenge. Control rats were treated in a similar manner, but given only starch vehicle. On the 14th and 21st day post challenge the diameter of the injected paw (primary lesion) was measured by micrometer caliper. The volume of inflamed paws were estimated from these measurements and the results are expressed as percent inhibition of swelling as compared to controls. At the same time, the other inflamed sites, such as ears, paws and tail (secondary lesions) were observed and each rat was graded as to degree of inflammation and swelling present. The grading is based on a scale of 0 to 24, where 0 represents a complete absence of induced arthritic nodules and 24 represents the maximum degree of inflammation. The mean grade for each treated group is calculated and the effects of each compound are expressed as percent inhibition of the control grade. Table I records the results of tests conducted with typical compounds of the present invention. These compounds appear to suppress the progression of the arthritis and associated joint deterioration."}, "[3]": {"test_system": "arthritic paw swelling", "settings": "result in words; cited from earlier work"}}}
{"smiles": "COc1ccccc1OC(=O)/C(C#N)=C(/C)O", "note": "[2-Cyano-3-hydroxycrotonic acid, o-methoxyphenyl ester]", "values": [{"measurement": "inhibition at 10 µg/mL", "setting": "[1]", "result": 49.3, "unit": "%"}]}
{"smiles": "C/C(O)=C(\\C#N)C(=O)Oc1ccc(C)cc1", "note": "[2-Cyano-3-hydroxycrotonic acid, p-tolyl ester]", "values": [{"measurement": "inhibition at 10 µg/mL", "setting": "[1]", "result": 50.3, "unit": "%"}]}
{"smiles": "COc1ccc(OC(=O)/C(C#N)=C(/C)O)cc1", "note": "[2-Cyano-3-hydroxycrotonic acid, p-methoxyphenyl ester]", "values": [{"measurement": "inhibition at 10 µg/mL", "setting": "[1]", "result": 58.4, "unit": "%"}]}
{"smiles": "C/C(O)=C(\\C#N)C(=O)Oc1ccc(Cl)cc1", "note": "[2-Cyano-3-hydroxycrotonic acid, p-chlorophenyl ester]", "values": [{"measurement": "Dead/Treated At 21 Days", "setting": "[2]; 25 mg./kg. body weight", "result": "2/18"}, {"measurement": "Mean Weight Gain, Day 14", "setting": "[2]; 25 mg./kg.", "result": 60, "unit": "grams"}, {"measurement": "% Inhibition of Swelling (Primary lesion), Day 14", "setting": "[2]; 25 mg./kg.", "result": 45, "unit": "%"}, {"measurement": "% Inhibition of Swelling (Primary lesion), Day 21", "setting": "[2]; 25 mg./kg.", "result": 0, "unit": "%"}, {"measurement": "Mean Weight Gain, Day 21", "setting": "[2]; 25 mg./kg.", "result": 46, "unit": "grams"}]}
{"smiles": "C/C(O)=C(\\C#N)C(=O)Oc1ccccc1F", "note": "[2-Cyano-3-hydroxycrotonic acid, o-fluorophenyl ester]", "values": [{"measurement": "inhibition at 10 µg/mL", "setting": "[1]", "result": 52.3, "unit": "%"}]}
{"smiles": "COc1ccc2c(c1)c(CC(=O)O)c(C)n2C(=O)c1ccc(Cl)cc1", "note": "[indomethacin]", "values": [{"measurement": "arthritic paw swelling", "setting": "[3]", "result": "inhibit arthritic paw swelling"}, {"measurement": "joint and bone deterioration", "setting": "[3]", "result": "prevent joint and bone deterioration"}]}
{"smiles": "C/C(O)=C(\\C#N)C(=O)Oc1cccc(Cl)c1Cl", "note": "[2-Cyano-3-hydroxycrotonic acid, 2,3-dichlorophenyl ester]", "values": [{"measurement": "Dead/Treated At 21 Days", "setting": "[2]; 50 mg./kg. body weight", "result": "11/24"}, {"measurement": "Mean Weight Gain, Day 14", "setting": "[2]; 50 mg./kg.", "result": 36, "unit": "grams"}, {"measurement": "% Inhibition of Swelling (Primary lesion), Day 14", "setting": "[2]; 50 mg./kg.", "result": 41, "unit": "%"}, {"measurement": "% Inhibition of Swelling (Primary lesion), Day 21", "setting": "[2]; 50 mg./kg.", "result": 0, "unit": "%"}, {"measurement": "Mean Weight Gain, Day 21", "setting": "[2]; 50 mg./kg.", "result": 32, "unit": "grams"}]}
{"smiles": "C/C(O)=C(\\C#N)C(=O)Oc1ccccc1Cl", "note": "[2-Cyano-3-hydroxycrotonic acid, o-chlorophenyl ester]", "values": [{"measurement": "Dead/Treated At 21 Days", "setting": "[2]; 50 mg./kg. body weight", "result": "0/9"}, {"measurement": "Mean Weight Gain, Day 14", "setting": "[2]; 50 mg./kg.", "result": 25, "unit": "grams"}, {"measurement": "% Inhibition of Swelling (Primary lesion), Day 14", "setting": "[2]; 50 mg./kg.", "result": 57, "unit": "%"}, {"measurement": "% Inhibition of Swelling (Primary lesion), Day 21", "setting": "[2]; 50 mg./kg.", "result": 35, "unit": "%"}, {"measurement": "Mean Weight Gain, Day 21", "setting": "[2]; 50 mg./kg.", "result": 29, "unit": "grams"}]}
